Test results published in ChEMBL document CHEMBL1201862, “PubChem BioAssay data set” (2004).
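Five concentrations, 48 hours, 96-well plates. GI50 is the concentration that inhibits growth by half.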 Calls of active or inactive are those of the source. Rule as the data show it: active = GI50 up to about 1.1 µM and inactive = higher.

How the values were obtained:
Assay in all cases: NCI-60 cell line screen, 48 h
UO-31 = system: UO-31
UACC-62 = system: UACC-62
NCI-H522 = system: NCI-H522
786-0 = system: 786-0
NCI-H23 = system: NCI-H23
LOX IMVI = system: LOX IMVI
CAKI-1 = system: CAKI-1
NCI-H460 = system: NCI-H460
SW-620 = system: SW-620
MDA-N = system: MDA-N
U-251 = system: U-251
ACHN = system: ACHN
PC-3 = system: PC-3
HOP-62 = system: HOP-62
NCI/ADR-RES = system: NCI/ADR-RES
OVCAR-3 = system: OVCAR-3
COLO 205 = system: COLO 205
Malme-3M = system: Malme-3M
SK-MEL-5 = system: SK-MEL-5
T47D = system: T47D
DU-145 = system: DU-145
MOLT-4 = system: MOLT-4
RPMI-8226 = system: RPMI-8226
A498 = system: A498
K562 = system: K562
SN12C = system: SN12C
NCI-H226 = system: NCI-H226
HL-60 = system: HL-60
SK-OV-3 = system: SK-OV-3
HCT-15 = system: HCT-15
EKVX = system: EKVX
HT-29 = system: HT-29
Hs-578T = system: Hs-578T
CCRF-CEM = system: CCRF-CEM
TK-10 = system: TK-10
SF-295 = system: SF-295
SF-539 = system: SF-539
SNB-75 = system: SNB-75
SNB-19 = system: SNB-19
KM12 = system: KM12
SF-268 = system: SF-268
OVCAR-4 = system: OVCAR-4
MDA-MB-231 = system: MDA-MB-231
SK-MEL-28 = system: SK-MEL-28
HOP-92 = system: HOP-92
UACC-257 = system: UACC-257
OVCAR-8 = system: OVCAR-8
A549 = system: A549
SK-MEL-2 = system: SK-MEL-2
SR = system: SR
HCT-116 = system: HCT-116
MCF7 = system: MCF7
BT-549 = system: BT-549
OVCAR-5 = system: OVCAR-5
MDA-MB-435 = system: MDA-MB-435
HCC 2998 = system: HCC 2998
IGROV-1 = system: IGROV-1
M14 = system: M14
RXF 393 = system: RXF 393

## COc1ccccc1C1SCC(=O)N1c1ccc(-n2c(-c3ccccc3)nc3ccccc3c2=O)cc1 (configuration not stated)
UO-31
  GI50: 9.1 µM (inactive)
UACC-62
  GI50: 29.2 µM (inactive)
NCI-H522
  GI50: 40.3 µM (inactive)
786-0
  GI50: > 100 µM (inactive)
NCI-H23
  GI50: > 100 µM (inactive)
LOX IMVI
  GI50: 77.8 µM (inactive)
CAKI-1
  GI50: 82 µM (inactive)
NCI-H460
  GI50: 40.7 µM (inactive)
SW-620
  GI50: 63.5 µM (inactive)
MDA-N
  GI50: > 100 µM (inactive)
U-251
  GI50: 73.1 µM (inactive)
ACHN
  GI50: 71.8 µM (inactive)
PC-3
  GI50: 80.4 µM (inactive)
HOP-62
  GI50: > 100 µM (inactive)
NCI/ADR-RES
  GI50: 19.3 µM (inactive)
OVCAR-3
  GI50: > 100 µM (inactive)
COLO 205
  GI50: > 100 µM (inactive)
Malme-3M
  GI50: 69.2 µM (inactive)
SK-MEL-5
  GI50: 37.5 µM (inactive)
T47D
  GI50: 12.9 µM (inactive)
DU-145
  GI50: 52.5 µM (inactive)
MOLT-4
  GI50: 28.8 µM (inactive)
RPMI-8226
  GI50: > 100 µM (inactive)
A498
  GI50: 36 µM (inactive)
K562
  GI50: 47.9 µM (inactive)
SN12C
  GI50: > 100 µM (inactive)
NCI-H226
  GI50: 74.1 µM (inactive)
HL-60
  GI50: > 10 µM (inactive)
SK-OV-3
  GI50: > 100 µM (inactive)
HCT-15
  GI50: 54.2 µM
EKVX
  GI50: > 100 µM (inactive)
HT-29
  GI50: 64.1 µM (inactive)
Hs-578T
  GI50: 39.4 µM (inactive)
CCRF-CEM
  GI50: 44.5 µM (inactive)
TK-10
  GI50: > 100 µM (inactive)
SF-295
  GI50: 75.5 µM (inactive)
SF-539
  GI50: > 100 µM (inactive)
SNB-75
  GI50: 3.51 µM (inactive)
SNB-19
  GI50: > 100 µM (inactive)
KM12
  GI50: 29.9 µM (inactive)
SF-268
  GI50: 78.2 µM (inactive)
OVCAR-4
  GI50: 15.8 µM (inactive)
MDA-MB-231
  GI50: 47.6 µM (inactive)
SK-MEL-28
  GI50: > 100 µM (inactive)
HOP-92
  GI50: 19.2 µM (inactive)
UACC-257
  GI50: > 100 µM (inactive)
OVCAR-8
  GI50: 60.4 µM (inactive)
A549
  GI50: 62.7 µM (inactive)
SK-MEL-2
  GI50: > 100 µM (inactive)
SR
  GI50: 81.7 µM (inactive)
HCT-116
  GI50: 57.1 µM (inactive)
MCF7
  GI50: 39.1 µM (inactive)
BT-549
  GI50: > 100 µM (inactive)
OVCAR-5
  GI50: > 100 µM (inactive)
MDA-MB-435
  GI50: 53.8 µM (inactive)
HCC 2998
  GI50: 70.6 µM (inactive)
IGROV-1
  GI50: 46.6 µM (inactive)

## CCCC(=O)N/S(=N/S(=O)(=O)c1ccc(Cl)cc1)C(Cl)(Cl)Cl (configuration not stated)
UO-31
  GI50: > 100 µM (inactive)
UACC-62
  GI50: > 100 µM (inactive)
786-0
  GI50: > 100 µM (inactive)
NCI-H23
  GI50: > 100 µM (inactive)
NCI-H460
  GI50: > 100 µM (inactive)
SW-620
  GI50: > 100 µM (inactive)
MDA-N
  GI50: > 100 µM (inactive)
U-251
  GI50: 47.9 µM (inactive)
ACHN
  GI50: > 100 µM (inactive)
PC-3
  GI50: > 100 µM (inactive)
HOP-62
  GI50: > 100 µM (inactive)
NCI/ADR-RES
  GI50: > 100 µM (inactive)
OVCAR-3
  GI50: > 100 µM (inactive)
Malme-3M
  GI50: > 100 µM (inactive)
SK-MEL-5
  GI50: > 100 µM (inactive)
T47D
  GI50: > 100 µM (inactive)
DU-145
  GI50: > 100 µM (inactive)
MOLT-4
  GI50: > 100 µM (inactive)
A498
  GI50: > 100 µM (inactive)
K562
  GI50: > 100 µM (inactive)
SN12C
  GI50: > 100 µM (inactive)
NCI-H226
  GI50: > 100 µM (inactive)
HL-60
  GI50: > 100 µM (inactive)
SK-OV-3
  GI50: > 100 µM (inactive)
HCT-15
  GI50: > 100 µM
EKVX
  GI50: > 100 µM (inactive)
HT-29
  GI50: > 100 µM (inactive)
Hs-578T
  GI50: > 100 µM (inactive)
CCRF-CEM
  GI50: > 100 µM (inactive)
M14
  GI50: > 100 µM (inactive)
TK-10
  GI50: > 100 µM (inactive)
SF-295
  GI50: > 100 µM (inactive)
SF-539
  GI50: > 100 µM (inactive)
RXF 393
  GI50: > 100 µM (inactive)
SNB-19
  GI50: > 100 µM (inactive)
KM12
  GI50: > 100 µM (inactive)
SF-268
  GI50: > 100 µM (inactive)
MDA-MB-231
  GI50: > 100 µM (inactive)
SK-MEL-28
  GI50: > 100 µM (inactive)
OVCAR-8
  GI50: > 100 µM (inactive)
A549
  GI50: > 100 µM (inactive)
SK-MEL-2
  GI50: 16.5 µM (inactive)
SR
  GI50: > 100 µM (inactive)
HCT-116
  GI50: > 100 µM (inactive)
MCF7
  GI50: > 100 µM (inactive)
BT-549
  GI50: > 100 µM (inactive)
OVCAR-5
  GI50: > 100 µM (inactive)
MDA-MB-435
  GI50: > 100 µM (inactive)
HCC 2998
  GI50: > 100 µM (inactive)
IGROV-1
  GI50: > 100 µM (inactive)
